Read-outs that look alike come from different tables or passages of the source. A value given as a limit tells only on which side of the number the result lay.

One assay concerns the target T1, Recombinant IDO1 (Homo sapiens, UniProt P14902).
T1 construct: His tag (N); made in house; host or cells: E. coli
Kind of assay: IDO1 enzymatic assay. Format: biochemical. The conditions noted are these: 50 nM IDO1, 1.3 mM D-tryptophan, read-out: Enzyme IC50 (nM) IDO1. The method in brief: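 N-terminally His-tagged enzyme from E. coli (50 nM) was incubated with compound, 1.3 mM D-tryptophan, 5 mM ascorbate, 6.25 μM methylene blue and 0.4 mg/mL catalase in 50 mM potassium phosphate pH 7.5, 0.1% BSA for 1.5 h at 24° C. N′-formylkynurenine formation was followed at 321 nm for 1 h; IC50 from rate slopes.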

The target of another assay is T2, Recombinant TDO (Homo sapiens, UniProt P48775).
T2 construct: His tag (C); made in house; host or cells: E. coli
Description: TDO enzymatic assay. Format: biochemical. The conditions noted are these: 100 nM TDO, 0.5 mM L-tryptophan, read-out: Enzyme IC50 (nM) TDO. As for the experimental part: Recombinant TDO was overexpressed and purified from E. coli cells with a C-terminal His tag. TDO enzymatic assay was performed using the same methodology as IDO1 enzymatic assay except that 100 nM TDO and 0.5 mM L-tryptophan (Km concentration) were used in the TDO assay.

Assay [1] deals with T3, cellular IDO1 in HeLa cells (Homo sapiens, UniProt P14902).
T3 construct: endogenous in cells; host or cells: HeLa cells (American Type Tissue Culture Collection), induced with human recombinant IFN-γ
Kind of assay: HeLa cell-based IDO1 Kyn (kynurenine) production assay. The conditions noted are these: IFN-γ 100 ng/mL, 48 hours. The method in brief: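 IFN-γ-induced HeLa cells (100 ng/mL) in phenol red-free DMEM with 0.4 mM L-Trp, compounds added together with IFN-γ, 48 h at 37 °C. Supernatant Kyn read at 480 nm after TCA precipitation and 4-(dimethylamino)benzaldehyde reaction. IC50 from four-parameter logistic fit.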

Where [2] appears, read: Table 1, 5-substituted imidazo[1,5-a]pyridines.
The mark [3] stands for this setting: Table 2, 8-substituted imidazo[1,5-a]pyridines.

T2 sequence (P48775 whole entry): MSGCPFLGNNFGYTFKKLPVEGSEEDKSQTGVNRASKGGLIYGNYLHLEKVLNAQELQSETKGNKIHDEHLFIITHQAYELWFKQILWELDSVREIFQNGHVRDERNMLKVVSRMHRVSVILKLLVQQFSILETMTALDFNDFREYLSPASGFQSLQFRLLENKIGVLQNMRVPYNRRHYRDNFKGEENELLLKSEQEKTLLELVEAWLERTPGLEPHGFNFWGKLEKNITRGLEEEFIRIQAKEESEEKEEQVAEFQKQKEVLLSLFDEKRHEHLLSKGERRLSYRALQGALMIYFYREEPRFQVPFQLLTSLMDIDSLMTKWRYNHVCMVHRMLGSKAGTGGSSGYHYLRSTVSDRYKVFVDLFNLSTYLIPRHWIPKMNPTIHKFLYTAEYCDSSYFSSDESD
T3 sequence (P14902 whole entry): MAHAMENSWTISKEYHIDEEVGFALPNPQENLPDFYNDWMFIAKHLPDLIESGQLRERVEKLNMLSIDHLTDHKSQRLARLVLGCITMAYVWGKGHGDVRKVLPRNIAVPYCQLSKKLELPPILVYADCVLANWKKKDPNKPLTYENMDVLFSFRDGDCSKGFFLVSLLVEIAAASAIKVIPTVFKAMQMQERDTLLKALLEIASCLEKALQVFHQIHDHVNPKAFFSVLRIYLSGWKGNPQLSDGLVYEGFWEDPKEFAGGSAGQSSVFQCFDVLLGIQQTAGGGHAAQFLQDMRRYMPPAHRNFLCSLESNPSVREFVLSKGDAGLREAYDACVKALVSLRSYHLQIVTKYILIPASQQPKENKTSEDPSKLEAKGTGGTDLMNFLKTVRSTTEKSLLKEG
T1 sequence (P14902 whole entry): as above

What is called IC50 is the concentration needed to halve the response being measured. For orientation: EC50 means the concentration needed to bring the measured effect to its halfway point. A higher EC50 goes with a less potent agent. `OC(c1c(C2CC2)ccc2cncn12)C1CCCCC1` (single isomer, unassigned) [Example A126b]: the IC50 at Recombinant IDO1 (setting [2]) was determined as 6800 nM; on Recombinant TDO (setting [2]) it was 74000 nM. For the same compound, in assay [1] (setting [2]), the EC50 is over 10000 nM.
On the same counts, the results for `OC(CC1CCCCC1)c1c(C(F)(F)F)ccc2cncn12` (single isomer, unassigned) [Example A127a] are 17 nM, 15000 nM and 169 nM.
For `OC(CC1CCCCC1)c1c(C(F)(F)F)ccc2cncn12` (single isomer, unassigned) [Example A127b] the same measures were 3200 nM, 25000 nM and 8010 nM.
On the same counts, the results for `OC(c1c(C2CC2)ccc2cncn12)C1CCCCC1` (single isomer, unassigned) [Example A129a] are 14 nM, 1700 nM and 38 nM.
Take `OC(c1c(C2CC2)ccc2cncn12)C1CCCCC1` (single isomer, unassigned) [Example A129b]: the results for the IC50 at Recombinant IDO1 (setting [2]) and on Recombinant TDO (setting [2]) were 21000 nM and 37000 nM, respectively. The EC50 in assay [1] (setting [2]) is over 10000 nM.
For `OC(c1c(Cl)c(Cl)cc2cncn12)C1CCCCC1` (single isomer, unassigned) [Example A143a] the same measures were 20 nM, 690 nM and 274 nM.
On the same counts, the results for `OC(c1c(Cl)c(Cl)cc2cncn12)C1CCCCC1` (single isomer, unassigned) [Example A143b] are 3400 nM, 14000 nM and 6100 nM.
On the same counts, the results for `OC(CC1CCCCC1)c1c(Cl)c(Cl)cc2cncn12` (single isomer, unassigned) [Example A144a] are over 100000 nM, 23000 nM and over 10000 nM.
Turning to `OC(CC1CCCCC1)c1c(Cl)c(Cl)cc2cncn12` (single isomer, unassigned) [Example A144b], the IC50 was found to be 14 nM on Recombinant IDO1 (setting [2]) and 240 nM on Recombinant TDO (setting [2]). The same compound showed an EC50 in assay [1] (setting [2]) of 291 nM.
In the case of `Cc1ccn2cncc2c1C(O)C1CCCCC1` (single isomer, unassigned) [Example B102a], the values for the IC50 on Recombinant IDO1 (setting [3]) and on Recombinant TDO (setting [3]) were 15 nM and 150 nM, respectively. The same compound yielded an EC50 in assay [1] (setting [3]) of 995 nM.
On to `Cc1ccn2cncc2c1C(O)C1CCCCC1` (single isomer, unassigned) [Example B102b], for which the IC50 on Recombinant IDO1 (setting [3]) came to 3100 nM; at Recombinant TDO (setting [3]) it was 31000 nM. In assay [1] (setting [3]), this compound gave an EC50 of over 10000 nM.
On the same counts, the results for `OC(c1c(C2CC2)ccn2cncc12)C1CCCCC1` (single isomer, unassigned) [Example B107a] are 47 nM, 1300 nM and 136 nM.
On the same counts, the results for `O[C@@H](c1c(C2CC2)ccn2cncc12)C1CCCCC1` (single isomer, unassigned) [Example B107b] are 21000 nM, 11000 nM and over 10000 nM.
For `OC(c1cccc2cncn12)C1CCCCC1` (stereo not drawn) [Example A001, Cyclohexyl(imidazo[1,5-a]pyridin-5-yl)methanol], the IC50 at Recombinant IDO1 (setting [2]) was 150 nM; at Recombinant TDO (setting [2]) it was 260 nM. For the same compound, the EC50 in assay [1] (setting [2]) was over 10000 nM.
For `OC(c1cccc2cncn12)C1CCCCCC1` (stereo not drawn) [Example A009, Cycloheptyl(imidazo[1,5-a]pyridin-5-yl)methanol], the IC50 at Recombinant IDO1 (setting [2]) came to 110 nM; on Recombinant TDO (setting [2]), 260 nM. The EC50 in assay [1] (setting [2]) is over 10000 nM.
For `c1cc(CC2CCCCC2)n2cncc2c1` [Example A015, 5-(cyclohexylmethyl)imidazo[1,5-a]pyridine] the same measures were 540 nM, 260 nM and over 10000 nM.
On to `FC(c1cc(Cl)cc2cncn12)C1CCC(F)(F)CC1` (stereo not drawn) [Example A020, 7-chloro-5-((4,4-difluorocyclohexyl)fluoromethyl)imidazo[1,5-a]pyridine], for which the IC50 on Recombinant IDO1 (setting [2]) worked out at 8900 nM; on Recombinant TDO (setting [2]), 350 nM. In assay [1] (setting [2]), this compound came in with an EC50 of over 10000 nM.
On the same counts, the results for `OC(c1ccc(F)c2cncn12)C1CCCCC1` (stereo not drawn) [Example A022, cyclohexyl(8-fluoroimidazo[1,5-a]pyridin-5-yl)methanol] are 1200 nM, 570 nM and over 10000 nM.
For `Clc1cc(CC2CCCCC2)n2cncc2c1` [Example A026, 7-chloro-5-(cyclohexylmethyl)imidazo[1,5-a]pyridine] the same measures were 107 nM, 73 nM and over 10000 nM.
`OC(c1cc(Cl)cc2cncn12)C1CCCCC1` (stereo not drawn) [Example A101, (7-chloroimidazo[1,5-a]pyridin-5-yl)(cyclohexyl)methanol]: the values for the IC50 on Recombinant IDO1 (setting [2]) and on Recombinant TDO (setting [2]) were 29 nM and 68 nM, respectively. This compound came in with an EC50 in assay [1] (setting [2]) of 1360 nM.
Take `O[C@H](c1cc(Cl)cc2cncn12)C1CCCCC1` [Example A101a, (S)-(7-chloroimidazo[1,5-a]pyridin-5-yl)(cyclohexyl)methanol]: the IC50 worked out at 9.6 nM at Recombinant IDO1 (setting [2]) and 29 nM at Recombinant TDO (setting [2]). In addition, the EC50 in assay [1] (setting [2]) was 326 nM.
As for `OC(CC1CCCCC1)c1cc(Cl)cc2cncn12` (stereo not drawn) [Example A102, 1-(7-chloroimidazo[1,5-a]pyridin-5-yl)-2-cyclohexylethan-1-ol], the values for the IC50 at Recombinant IDO1 (setting [2]) and at Recombinant TDO (setting [2]) were 67 nM and 300 nM, respectively. Moreover, the midpoint of the response in assay [1] (setting [2]), the EC50, lay at 1760 nM.
Turning to `OC(c1cc(Cl)cc2cncn12)C1CCCC1` (stereo not drawn) [Example A103, (7-chloroimidazo[1,5-a]pyridin-5-yl)(cyclopentyl)methanol], the IC50 on Recombinant IDO1 (setting [2]) and on Recombinant TDO (setting [2]) was 22 nM in each case. The compound further returned an EC50 in assay [1] (setting [2]) of 1510 nM.
Consider `CC1CCC(C(O)c2cc(Cl)cc3cncn23)CC1` (stereo not drawn) [Example A104, (7-chloroimidazo[1,5-a]pyridin-5-yl)(4-methylcyclohexyl)methanol], for which the IC50 is 29 nM at Recombinant IDO1 (setting [2]) and 270 nM on Recombinant TDO (setting [2]). The EC50 in assay [1] (setting [2]) was 2180 nM.
On the same counts, the results for `O=C(NC1CCCC(C(O)c2cc(Cl)cc3cncn23)C1)c1cccc(Cl)c1` (stereo not drawn) [Example A105, 3-chloro-N-(3-((7-chloroimidazo[1,5-a]pyridin-5-yl)(hydroxy)methyl)cyclohexyl)benzamide] are 127 nM, 1600 nM and 1690 nM.
For `OC(c1cc(I)cc2cncn12)C1CCCCC1` (stereo not drawn) [Example A107, cyclohexyl(7-iodoimidazo[1,5-a]pyridin-5-yl)methanol 2,2,2-trifluoroacetate] the same measures were 26 nM, 110 nM and 968 nM.
For `OC(c1cc(C2CC2)cc2cncn12)C1CCCCC1` (stereo not drawn) [Example A108, cyclohexyl(7-cyclopropylimidazo[1,5-a]pyridin-5-yl)methanol 2,2,2-trifluoroacetate] the same measures were 36 nM, 150 nM and 4440 nM.
With `OC(c1cc(C(F)(F)F)cc2cncn12)C1CCCCC1` (stereo not drawn) [Example A109, cyclohexyl(7-(trifluoromethyl)imidazo[1,5-a]pyridin-5-yl)methanol], the IC50 at Recombinant IDO1 (setting [2]) amounted to 49 nM; on Recombinant TDO (setting [2]), 110 nM. This compound also yielded an EC50 in assay [1] (setting [2]) of 1540 nM.
On the same counts, the results for `OC(c1cc(C(F)(F)F)cc2cncn12)C1CCCC1` (stereo not drawn) [Example A110, Cyclopentyl(7-(trifluoromethyl)imidazo[1,5-a]pyridin-5-yl)methanol] are 66 nM, 120 nM and 2090 nM.
For `OC(c1cc(Br)cc2cncn12)C1CCCCC1` (stereo not drawn) [Example A111, (7-bromoimidazo[1,5-a]pyridin-5-yl)(cyclohexyl)methanol] the same measures were 25 nM, 63 nM and 962 nM.
On the same counts, the results for `OC(c1cc(Br)cc2cncn12)C1CCCC1` (stereo not drawn) [Example A112, (7-bromoimidazo[1,5-a]pyridin-5-yl)(cyclopentyl)methanol] are 24 nM, 48 nM and 1040 nM.
For the compound `OC(CCC1CCCCC1)c1cc(Cl)cc2cncn12` (stereo not drawn) [Example A113, 1-(7-chloroimidazo[1,5-a]pyridin-5-yl)-3-cyclohexylpropan-1-ol], the IC50 is 26 nM on Recombinant IDO1 (setting [2]) and 1100 nM at Recombinant TDO (setting [2]). The compound also came in with an EC50 in assay [1] (setting [2]) of 3220 nM.
`OC(c1cc(C(F)(F)F)cc2cncn12)C1CCCCCC1` (stereo not drawn) [Example A115, cycloheptyl(7-(trifluoromethyl)imidazo[1,5-a]pyridin-5-yl)methanol]: the IC50 at Recombinant IDO1 (setting [2]) was 180 nM; on Recombinant TDO (setting [2]), 320 nM. The compound further gave an EC50 in assay [1] (setting [2]) of 3160 nM.
